# In US9567301B2, “Pyrrol-1-yl benzoic acid derivatives useful as myc inhibitors” (Whitehead Institute for Biomedical Research, priority 2012, dated 2017):
# pEC50, pIC50: −log10 of the molar value. “Also recorded” adds a separate entry of the source. Read-outs that look alike come from different tables or passages of the source.
# Key:
# c-Myc/Max/Ebox DNA [1] = target: T1, c-Myc/Max/Ebox DNA (Homo sapiens, UniProt P01106); assay: c-Myc/Max/Ebox DNA AlphaScreen assay; format: binding; design: An exemplary assay uses full-length human c-Myc and Max proteins; his6 (cleaved yes); made in house
# Method in brief: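 Free c-Myc (25 nM), made by thrombin removal of the His6 tag, is pre-mixed with biotin-Ebox DNA (10 nM) and Ni acceptor beads before compound addition, then His6-Max (1.25 nM) and streptavidin donor beads are added. Buffer is HEPES pH 8.0 with BSA, Tween20, glycogen and DTT. Read after 2 h, excitation 680 nm, emission 520–620 nm.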
# H2171 cells = assay: Cell viability assay (ATPlite), H2171; format: cell-based, human; conditions: for pEC50: Homo sapiens, NCI-H2171, 72 h, cell viability, three days, ATPlite, NA: inactive under assay conditions
# Method in brief: (§1)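 Cells seeded at 60,000 cells/mL and dosed immediately by pin transfer in 10-point quadruplicate dose response from DMSO stocks. After three days at 37 °C, viability was read by ATPlite luminescence after 15 min at room temperature.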
# c-Myc/Max/Ebox DNA [2] = target: T1, c-Myc/Max/Ebox DNA; assay: Gelshift assay, c-Myc/Max/Ebox DNA complex formation; format: binding
# Description: FIG. 5 describes validation of Compound 63 activity using an orthogonal biochemical assay. […] Decreasing amounts of 63 was added to purified c-Myc, Max and biotinylated Ebox DNA. Biotinylated Ebox DNA complexed with protein (either c-Myc/Max or Max/Max) or free (bottom band) was assayed using a 6% retardation gel, transferred to a membrane and detected using straptavidin-HRP. […]
# (§2) AlphaScreen hits can be validated using orthogonal biochemical assays such as a gelshift assay (also called an electrophoretic mobility shift assay) with purified components or cellular lysates. FIG. 5 (left) illustrates how the AlphaScreen hit 63 was validated using a gelshift assay with purified c-Myc, Max and Ebox DNA. […] Compounds and analogs were then examined for potency and selectivity against structurally similar transcription factor:DNA complexes, such as Max/Max/Ebox DNA and MITF/MITF/Ebox DNA. Data in FIG. 9 show how analogs can be tested for potency against structurally similar transcription factors and how medicinal chemistry optimization can drive potency and selectivity against different transcription factor:DNA complexes. […] The selectivity among structurally similar transcription factors can also provide insights into compound mechanism of action. […] Cellular assays can compliment the biochemical analyses to measure the cellular potency of compounds to induce cellular phenotypes expected as a result of loss of transcription factor function. This includes gene expression analysis, chromatin immunoprecipitation (ChIP) analysis, cellular proliferation analysis and cell state analysis. Gene expression analysis can be performed using qRT-PCR, Nanostring technology, microarray technology, or RNA-seq technology to study transcript changes following treatment with compound. ChIP analysis can be performed on the factor of interest to study if compound treatment alters its genomic occupancy. Cellular proliferation and cell state analysis can indicate if the compound alters cell cycle progression or cellular identity. Thus, the approach using biochemical and cellular assays with large chemical libraries or focused libraries of hits identified in high throughput screens can serve as a platform to develop inhibitors of transcription factor function.
# MM1S cells = assay: Cell viability assay (ATPlite), MM1S; format: cell-based, human; conditions: for pEC50: cell viability, three days, ATPlite, NA: inactive under assay conditions
# Method in brief: as §1
# c-Myc = target: T2, c-Myc (Homo sapiens, UniProt P01106); assay: c-Myc chromatin immunoprecipitation assay in H2171 cells; format: cell-based; conditions: 100 μM, 4 hours
# T2 construct: c-Myc genomic occupancy in H2171 cells treated with DMSO, Compound 63 (100 μM) or CC34301 (100 μM); endogenous in cells; host or cells: H2171
# Description: FIG. 6 depicts a c-Myc chromatin immunoprecipitation assay to investigate c-Myc genomic occupancy in H2171 cells treated with DMSO, Compound 63 (100 μM) or CC34301 (100 μM) for 4 hours. Standard chromatin immunoprecipitation procedures were followed using an antibody specific to c-Myc (Santa Cruz, catalogue number sc-764). Quantitative PCR analysis was performed on four c-Myc binding sites (Npm1, Mat2a, Hnrnpa2b1, and Rp123a) and one non-binding site (Neg region) and normalized to a background region to determine the fold enrichment over background.
# Jurkat cells = assay: Cell viability assay (ATPlite), Jurkat; format: cell-based, human; conditions: Homo sapiens, Jurkat; class symbols; NA: not active under assay conditions
# Description: This assay was used for the H2171 and MM1S cell data shown in Table 2, and for the Jurkat (an immortalized line of human T lymphocyte cells), Ly1 (OCI-Ly1 human non-Hodgkin lymphoma cell line), Ly4 (OCI-Ly4 human non-Hodgkin lymphoma cell line), H2172 (NCI-H2172 human non-small cell lung cancer cell line), and CA-46 (a human Burkitt's lymphoma cell line) cell data shown in Table 3 and FIG. 12. Cells were counted and adjusted to 60,000 cells/mL. Using a Biotek EL406, 50 μL of cells are media were distributed into 384 well white plates from Thermo. Immediately after plating, compound in DMSO was distributed to plates. For large plate sets, cells were returned to 37° C. incubator while not in use.
# Compounds were added to plates using a 100 nL 384 well pin transfer manifold on a Janus workstation. Stocks were arrayed in 10 point quadruplicate dose response in DMSO stock in 384 well Greiner compound plates. After addition of compound, plates were incubated for three days in a 37° C. incubator.
# Cell viability was read out using ATPlite from Perkin Elmer. Plates were removed from the incubator and brought to room temperature prior to use. Lyophilized powder was resuspended in lysis buffer and diluted 1:2 with DI water. 25 μL of this solution was added to each well using the Biotek liquid handler. Plates were sealed with adherent aluminum seals prior to vortexing and spinning down at 1000 g for 1 minute. Plates were incubated for 15 minutes at room temperature before signal was read on an Envision Plate Reader.
# [3] = system: HL-60 promyelocytic leukemia cells; assay: HL-60 differentiation (qRT-PCR, FACS); format: cell-based, human; conditions: HL-60 cells
# Description: FIG. 7 depicts the assessment of on-target activity versus general toxicity. HL-60 promyelocytic leukemia cells express high levels of c-Myc to maintain a proliferative and undifferentiated cell state. Loss of c-Myc function results in loss of cellular proliferation and induction of cellular differentiation. HL-60 cells were treated with DMSO, 64 (12.5 μM or 25 μM), or 151 (25 μM) for four days.
# MITF/MITF/Ebox DNA = target: T3, MITF/MITF/Ebox DNA (Homo sapiens, UniProt O75030); assay: Gelshift assay, MITF/MITF/Ebox DNA complex formation; format: binding; conditions: relative to DMSO at 2.5 µM (FIG. 9)
# T3 sequence (O75030 1-526): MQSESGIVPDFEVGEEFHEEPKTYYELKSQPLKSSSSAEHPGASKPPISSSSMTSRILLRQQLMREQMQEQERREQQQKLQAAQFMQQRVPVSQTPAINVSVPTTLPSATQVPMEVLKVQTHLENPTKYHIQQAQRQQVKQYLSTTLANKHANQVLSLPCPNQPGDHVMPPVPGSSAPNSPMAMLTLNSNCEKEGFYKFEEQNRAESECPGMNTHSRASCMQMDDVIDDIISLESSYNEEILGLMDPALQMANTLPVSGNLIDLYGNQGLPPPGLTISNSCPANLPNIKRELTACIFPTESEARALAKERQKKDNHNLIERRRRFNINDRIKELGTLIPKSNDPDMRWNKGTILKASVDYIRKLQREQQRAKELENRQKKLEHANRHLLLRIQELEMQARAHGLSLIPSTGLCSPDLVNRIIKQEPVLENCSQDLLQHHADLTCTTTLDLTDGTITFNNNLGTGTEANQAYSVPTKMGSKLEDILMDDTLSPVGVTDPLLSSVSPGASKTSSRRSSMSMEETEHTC
# Description: (§3) Compounds tested at 2.5 μM for their inhibitory activity against c-Myc/Max/Ebox DNA, Max/Max/Ebox DNA and MITF/MITF/Ebox DNA complex formation using gelshift assays.
# as §2
# Max/Max/Ebox DNA = Max/Max/Ebox DNA (Homo sapiens, UniProt P61244); assay: Gelshift assay, Max/Max/Ebox DNA complex formation; format: binding; conditions: relative to DMSO at 2.5 µM (FIG. 9)
# Description: as §3
# as §2, with “Gene expression analysis can be performed using qRT-PCR, Nanostring technology, microarray technology, or RNA-seq technology to study transcript changes following treatment with compound. ChIP analysis can be performed on the factor of interest to study if compound treatment alters its genomic occupancy. Cellular proliferation and cell state analysis can indicate if the compound alters cell cycle progression or cellular identity. Thus, the approach using biochemical and cellular assays with large chemical libraries or focused libraries of hits identified in high throughput screens can serve as a platform to develop inhibitors of transcription factor function.” left out
# protein:DNA complex = assay: Comparative biochemical analyses of protein:DNA complex formation (FIG. 10); format: binding; conditions: FIG. 10, DNA intercalator comparison
# [4] = c-Myc/Max/Ebox DNA AlphaScreen, NA: inactive under assay conditions, read-out: Biochemical IC50
# [5] = class symbols, NA: not active under assay conditions, read-out: Myc/Max IC50
# [6] = relative to DMSO at 2.5 mM (FIG. 9)
# T2 sequence (P01106 whole entry): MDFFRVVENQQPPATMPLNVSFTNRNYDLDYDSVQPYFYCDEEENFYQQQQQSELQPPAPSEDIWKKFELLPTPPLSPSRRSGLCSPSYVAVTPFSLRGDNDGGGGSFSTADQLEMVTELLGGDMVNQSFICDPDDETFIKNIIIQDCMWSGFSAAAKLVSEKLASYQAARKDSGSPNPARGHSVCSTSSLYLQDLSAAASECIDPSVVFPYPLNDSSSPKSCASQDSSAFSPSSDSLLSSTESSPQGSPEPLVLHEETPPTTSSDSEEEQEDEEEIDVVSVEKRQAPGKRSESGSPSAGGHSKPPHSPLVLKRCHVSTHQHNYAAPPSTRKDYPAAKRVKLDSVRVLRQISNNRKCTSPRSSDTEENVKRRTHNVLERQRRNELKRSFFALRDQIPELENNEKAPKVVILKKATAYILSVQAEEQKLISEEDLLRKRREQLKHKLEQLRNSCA
# T1 sequence (P01106 16-454): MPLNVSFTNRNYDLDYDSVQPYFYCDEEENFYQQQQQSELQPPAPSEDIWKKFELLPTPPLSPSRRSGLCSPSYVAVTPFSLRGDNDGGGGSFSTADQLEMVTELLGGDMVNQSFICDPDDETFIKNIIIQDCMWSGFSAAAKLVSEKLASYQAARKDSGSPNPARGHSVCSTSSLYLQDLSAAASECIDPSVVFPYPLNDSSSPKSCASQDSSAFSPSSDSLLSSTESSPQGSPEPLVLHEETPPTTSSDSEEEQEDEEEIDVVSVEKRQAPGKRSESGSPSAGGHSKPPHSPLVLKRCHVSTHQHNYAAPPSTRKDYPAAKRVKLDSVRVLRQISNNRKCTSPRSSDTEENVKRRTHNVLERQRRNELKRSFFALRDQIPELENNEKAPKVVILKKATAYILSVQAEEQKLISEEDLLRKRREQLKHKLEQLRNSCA
# Sequence of Max/Max/Ebox DNA (P61244 whole entry): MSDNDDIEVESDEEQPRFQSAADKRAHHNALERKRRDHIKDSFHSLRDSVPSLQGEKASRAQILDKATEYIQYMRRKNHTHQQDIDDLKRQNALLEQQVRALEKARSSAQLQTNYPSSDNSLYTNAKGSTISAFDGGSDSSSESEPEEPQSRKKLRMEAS
smiles,measurement,setting,value
"Cc1ccc(C)n1-c1ccccc1C(=O)O [Compound 63, 2-(2,5-dimethylpyrrolyl)benzoic acid]",pIC50,c-Myc/Max/Ebox DNA [1]; [4],4.62
same,pEC50,H2171 cells,4.01
same,selectivity c-Myc/Max versus Max/Max,c-Myc/Max/Ebox DNA [2]; at tested doses (FIG. 5),selectivity towards c-Myc/Max
same,c-Myc/Max/Ebox DNA complex formation,c-Myc/Max/Ebox DNA [2]; decreasing amounts of compound (FIG. 5),reduced c-Myc/Max/Ebox DNA complex formation in a dose-dependent manner; also recorded: inhibits c-Myc/Max/Ebox DNA complex formation (top band) in a dose dependent manner
same,pEC50,MM1S cells,3.49
same,Max genomic occupancy,c-Myc,largely unchanged
same,c-Myc protein levels,c-Myc,unchanged
same,"c-Myc occupancy at binding sites (Npm1, Mat2a, Hnrnpa2b1, Rp123a)",c-Myc; compared to DMSO or CC34301,reduced c-Myc occupancy
CC(=O)OCOC(=O)c1ccccc1-n1c(C)ccc1C [Compound 64],pEC50,Jurkat cells,4.00 to 5.00
same,pIC50,c-Myc/Max/Ebox DNA [1]; [4],3.81
same,pIC50,c-Myc/Max/Ebox DNA [1]; [5],≤ 4.00
same,cellular activity in cellular proliferation assay,"H2171 cells; H2171, relative to free acid Compound 63 (FIG. 3)",increased cellular activity
same,pEC50,H2171 cells,4.52
same,expression of differentiation markers (qRT-PCR),"[3]; 12.5 μM or 25 μM, four days","induces the expression of three differentiation markers (CD14, CD11c, and CCL4)"
same,differentiation marker CD11c (FACS),[3]; 4 days,express the differentiation marker CD11c
same,pEC50,"MM1S cells; Homo sapiens, MM1.S, 72 h",4.28
same,cellular activity/potency in cellular proliferation assay,"MM1S cells; MM1.S, prodrug relative to free acid (FIG. 3, FIG. 4)",increased cellular activity
Cc1ccc(C)n1-c1cc(C(=O)N/N=C/c2ccc(O)c(O)c2O)ccc1C(=O)O [Compound 79],pIC50,c-Myc/Max/Ebox DNA [1]; [4],6.27
same,c-Myc/Max/Ebox DNA complex formation,c-Myc/Max/Ebox DNA [2]; [6],disrupted
same,MITF/MITF/Ebox DNA complex formation,MITF/MITF/Ebox DNA,disrupted
"Cc1ccc(C)n1-c1cc(C(=O)N/N=C/c2cccc(C(=O)O)c2)ccc1C(=O)O [Compound 101, (E)-4-(2-(3-carboxybenzylidene)hydrazinecarbonyl)-2-(2,5-dimethyl-1H-pyrrol-1-yl)benzoic acid]",pEC50,Jurkat cells,4.00 to 5.00
same,biochemical activity,c-Myc/Max/Ebox DNA [1]; FIG. 4,increased biochemical activity
same,pIC50,c-Myc/Max/Ebox DNA [1]; [5],5.00 to 6.00
same,Max/Max/Ebox DNA complex formation,Max/Max/Ebox DNA,potently disrupted
same,c-Myc/Max/Ebox DNA complex formation,c-Myc/Max/Ebox DNA [2]; [6],potently disrupted
same,MITF/MITF/Ebox DNA complex formation,MITF/MITF/Ebox DNA,potently disrupted
COc1cccc2c1C(=O)c1c(O)c3c(c(O)c1C2=O)C[C@@](O)(C(=O)CO)C[C@@H]3O[C@H]1C[C@H](N)[C@H](O)[C@H](C)O1 [doxorubicin],protein:DNA complex formation,protein:DNA complex,non-specifically disrupts protein:DNA complex formation
